ChEMBL document CHEMBL3885881, “DrugMatrix”

Species: Rattus norvegicus
Assay: DrugMatrix - Regimen: Daily Repeat
Format: toxicity, organism-based, Sprague-Dawley
Set-up: regimen Daily Repeat, gender Male, age 6-8 weeks
Settings: in vivo, po, 900 mg/kg, route oral GAVAGE, dose level High, […]; for ABSOLUTE BASOPHIL / ABSOLUTE EOSINOPHIL / ABSOLUTE LYMPHOCYTE / ABSOLUTE MONOCYTE / BASOPHIL / EOSINOPHIL / ERYTHROCYTE COUNT / HEMATOCRIT / HEMOGLOBIN / LEUKOCYTE COUNT / LYMPHOCYTE / MEAN CORPUSCULAR HEMOGLOBIN / MEAN CORPUSCULAR HEMOGLOBIN CONCENTRATION / MEAN CORPUSCULAR VOLUME / MONOCYTE / NEUTROPHIL / PLATELET COUNT: tissue Blood
[1] = 72 h, tissue Plasma, time 3 day
[2] = 120 h, tissue Plasma, time 5 day

In the case of Clc1ccc(Cl)cc1 [1,4-DICHLOROBENZENE], the ABSOLUTE BASOPHIL (72 h, time 3 day) is reported as 33.3 cells/µL, the ABSOLUTE EOSINOPHIL (72 h, time 3 day) is reported as 40 cells/µL and the ABSOLUTE LYMPHOCYTE (72 h, time 3 day) is reported as 9740 cells/µL. For the same compound, the ABSOLUTE MONOCYTE (72 h, time 3 day) was 310 cells/µL, the BASOPHIL (72 h, time 3 day) was 0.27% and the EOSINOPHIL (72 h, time 3 day) was 0.33%. For the same compound, the “ERYTHROCYTE COUNT” value (72 h, time 3 day) was 7.33 x10E6/uL, the HEMATOCRIT (72 h, time 3 day) was 47.67% and the HEMOGLOBIN (72 h, time 3 day) was 15.3 G/DL. The “LEUKOCYTE COUNT” value (72 h, time 3 day) was 11.53 x10E3/uL, the LYMPHOCYTE (72 h, time 3 day) was 85.37% and the “MEAN CORPUSCULAR HEMOGLOBIN” value (72 h, time 3 day) was 20.83 pg. The “MEAN CORPUSCULAR HEMOGLOBIN CONCENTRATION” value (72 h, time 3 day) was 32.07 G/DL, the “MEAN CORPUSCULAR VOLUME” value (72 h, time 3 day) was 65 fL and the MONOCYTE (72 h, time 3 day) was 2.5%. The NEUTROPHIL (72 h, time 3 day) was 11%, the “PLATELET COUNT” value (72 h, time 3 day) was 1237 x10E3/uL and the “ALANINE AMINOTRANSFERASE” value [1] was 80.33 u/L. For the same compound, the ALBUMIN [1] was 3.47 G/DL, the “ALKALINE PHOSPHATASE” value [1] was 437.33 u/L and the “ASPARTATE AMINOTRANSFERASE” value [1] was 129.33 u/L. For the same compound, the “BLOOD UREA NITROGEN” value [1] was 18.67 mg/dL, the “CARBON DIOXIDE” value [1] was 40 mmol/L and the CHLORIDE [1] was 106.67 MEQ/L. The CHOLESTEROL [1] was 71 mg/dL, the “CREATINE PHOSPHOKINASE” value [1] was 391 u/L and the CREATININE [1] was 0.63 mg/dL. For the same compound, the GLUCOSE [1] was 167.33 mg/dL, the LIPASE [1] was 199.33 u/L and the PHOSPHORUS [1] was 9.67 mg/dL. The POTASSIUM [1] was 5.7 MEQ/L, the SODIUM [1] was 148.67 MEQ/L and the “TOTAL BILIRUBIN” value [1] was 0.83 mg/dL. The “TOTAL PROTEIN” value [1] was 5.53 G/DL, the “URIC ACID” value [1] was 0.77 mg/dL and the ABSOLUTE BASOPHIL (120 h, time 5 day) was 30 cells/µL. The ABSOLUTE EOSINOPHIL (120 h, time 5 day) was 80 cells/µL, the ABSOLUTE LYMPHOCYTE (120 h, time 5 day) was 9070 cells/µL and the ABSOLUTE MONOCYTE (120 h, time 5 day) was 300 cells/µL. For the same compound, the BASOPHIL (120 h, time 5 day) was 0.3%, the EOSINOPHIL (120 h, time 5 day) was 0.73% and the “ERYTHROCYTE COUNT” value (120 h, time 5 day) was 7.06 x10E6/uL. The HEMATOCRIT (120 h, time 5 day) was 45.4%, the HEMOGLOBIN (120 h, time 5 day) was 14.13 G/DL and the “LEUKOCYTE COUNT” value (120 h, time 5 day) was 11.69 x10E3/uL. For the same compound, the LYMPHOCYTE (120 h, time 5 day) was 77.37%, the “MEAN CORPUSCULAR HEMOGLOBIN” value (120 h, time 5 day) was 20.03 pg and the “MEAN CORPUSCULAR HEMOGLOBIN CONCENTRATION” value (120 h, time 5 day) was 31.1 G/DL. The “MEAN CORPUSCULAR VOLUME” value (120 h, time 5 day) was 64.53 fL, the MONOCYTE (120 h, time 5 day) was 2.57% and the NEUTROPHIL (120 h, time 5 day) was 18.23%. The “PLATELET COUNT” value (120 h, time 5 day) was 1234.33 x10E3/uL, the “ALANINE AMINOTRANSFERASE” value [2] was 88.67 u/L and the ALBUMIN [2] was 3.83 G/DL. The “ALKALINE PHOSPHATASE” value [2] was 433.33 u/L, the “ASPARTATE AMINOTRANSFERASE” value [2] was 100.33 u/L and the “BLOOD UREA NITROGEN” value [2] was 16 mg/dL. The “CARBON DIOXIDE” value [2] was 42.33 mmol/L, the CHLORIDE [2] was 105.33 MEQ/L and the CHOLESTEROL [2] was 119 mg/dL. The “CREATINE PHOSPHOKINASE” value [2] was 376.67 u/L, the CREATININE [2] was 0.5 mg/dL and the GLUCOSE [2] was 166.67 mg/dL. For the same compound, the LIPASE [2] was 96 u/L, the PHOSPHORUS [2] was 9.13 mg/dL and the POTASSIUM [2] was 5.73 MEQ/L. For the same compound, the SODIUM [2] was 148.67 MEQ/L, the “TOTAL BILIRUBIN” value [2] was 0.6 mg/dL and the “TOTAL PROTEIN” value [2] was 6.27 G/DL. The “URIC ACID” value [2] was 0.57 mg/dL, the ABSOLUTE BASOPHIL (time 14 day) was 52 cells/µL and the ABSOLUTE EOSINOPHIL (time 14 day) was 38 cells/µL. The ABSOLUTE LYMPHOCYTE (time 14 day) was 10600 cells/µL, the ABSOLUTE MONOCYTE (time 14 day) was 320 cells/µL and the BASOPHIL (time 14 day) was 0.36%. The EOSINOPHIL (time 14 day) was 0.28%, the “ERYTHROCYTE COUNT” value (time 14 day) was 7.26 x10E6/uL and the HEMATOCRIT (time 14 day) was 44.36%. The HEMOGLOBIN (time 14 day) was 14.58 G/DL, the “LEUKOCYTE COUNT” value (time 14 day) was 14.34 x10E3/uL and the LYMPHOCYTE (time 14 day) was 74.48%. For the same compound, the “MEAN CORPUSCULAR HEMOGLOBIN” value (time 14 day) was 20.04 pg, the “MEAN CORPUSCULAR HEMOGLOBIN CONCENTRATION” value (time 14 day) was 32.82 G/DL and the “MEAN CORPUSCULAR VOLUME” value (time 14 day) was 61.16 fL. For the same compound, the MONOCYTE (time 14 day) was 2.18%, the NEUTROPHIL (time 14 day) was 22.12% and the “PLATELET COUNT” value (time 14 day) was 1242.2 x10E3/uL. For the same compound, the “ALANINE AMINOTRANSFERASE” value (tissue Plasma, time 14 day) was 68 u/L, the ALBUMIN (tissue Plasma, time 14 day) was 4.02 G/DL and the “ALKALINE PHOSPHATASE” value (tissue Plasma, time 14 day) was 529.2 u/L. The “ASPARTATE AMINOTRANSFERASE” value (tissue Plasma, time 14 day) was 89.8 u/L, the “BLOOD UREA NITROGEN” value (tissue Plasma, time 14 day) was 15.8 mg/dL and the “CARBON DIOXIDE” value (tissue Plasma, time 14 day) was 43.6 mmol/L. For the same compound, the CHLORIDE (tissue Plasma, time 14 day) was 102.2 MEQ/L, the CHOLESTEROL (tissue Plasma, time 14 day) was 110.2 mg/dL and the “CREATINE PHOSPHOKINASE” value (tissue Plasma, time 14 day) was 309 u/L. For the same compound, the CREATININE (tissue Plasma, time 14 day) was 0.78 mg/dL, the GLUCOSE (tissue Plasma, time 14 day) was 134.2 mg/dL and the “LACTATE DEHYDROGENASE” value (tissue Plasma, time 14 day) was 217.6 u/L. The LIPASE (tissue Plasma, time 14 day) was 10 u/L, the PHOSPHORUS (tissue Plasma, time 14 day) was 9.34 mg/dL and the POTASSIUM (tissue Plasma, time 14 day) was 5.94 MEQ/L. The SODIUM (tissue Plasma, time 14 day) was 147.8 MEQ/L, the “TOTAL BILIRUBIN” value (tissue Plasma, time 14 day) was 0.44 mg/dL and the “TOTAL PROTEIN” value (tissue Plasma, time 14 day) was 6.7 G/DL. For the same compound, the “URIC ACID” value (tissue Plasma, time 14 day) was 0.52 mg/dL.
